What was measured:
[1] = Stability in human serum at 37 °C (radio-HPLC / LC-MS); format: in vitro ADME; conditions: % intact labeled ligand, human serum, 37 °C
Procedure: (§1) For the stability assessment of eFAP-6, [^111In]In-eFAP-6 or [^177Lu]Lu-eFAP-6 (~ 3–7 MBq, 20 µL) was mixed with 180 µL of PBS (0.01 M, pH 7.4) and incubated at 37 °C for up to 24 h. A sample of the PBS solution was directly injected on the radio-HPLC at 1, 4, and 24 h after incubation. Additionally, [^111In]In-eFAP-6 and [^177Lu]Lu-eFAP-6 (5–15 MBq, 50 µL) were incubated with 350 µL of commercially acquired mouse or human serum (Biolegend; San Diego, CA, USA) at 37 °C for up to 24 h. Following 1, 4, and 24 h of incubation, 50 µL of the solution were mixed with 50 µL of acetonitrile in an Eppendorf tube, and centrifuged at 5000× g for 20 min. The supernatant was then analyzed by radio-HPLC. Stability studies of eFAP-7 were performed by incubation of eFAP-7 (50 µL, 10^− 4 M) in 450 µL PBS or serum at 37 °C for up to 24 h. After 1, 4, and 24 h of incubation, 50 µL of the PBS incubation solution were directly analyzed by liquid chromatography-mass spectrometry (LC-MS), while 50 µL of the serum solution was mixed with 50 µL of acetonitrile in an Eppendorf tube, and centrifuged at 5000× g for 20 min, followed by LC-MS analyses.

HT1080-WT cells = test: Confocal microscopy of fluorescent tracer uptake, HT1080-WT; format: cell-based, human; conditions: HT1080-WT (FAP-negative control), 1 nM
Procedure: (§2) Cell experiments were performed with the human sarcoma HT1080 cell line, stably transduced with human FAP (HT1080-huFAP) which were kindly provided by Prof. Dr. Uwe Haberkorn from the University of Heidelberg. The wild type HT1080 (ATTC), hereafter HT080-WT, was used as a negative control. Additionally, the pancreatic stellate cells PS-1, obtained from Queen Mary University, were used as an endogenously FAP expressing cell line. HT1080-huFAP and HT1080-WT cells were cultured in DMEM Glutamax© (Gibco; Breda, The Netherlands) and the PS-1 cells were cultured in RPMI (Gibco). Both media were supplemented with 10% FBS (Gibco), 100 UI/mL penicillin, and 100 µg/mL streptomycin (Merck Life Science NV; Amsterdam, The Netherlands). All cell lines were regularly passaged at 80% confluence and cultured at 37 °C, 5% CO2.
(§3) Fluorescent tracer uptake was analyzed on HT1080-huFAP, HT1080-WT, and PS-1 cells. One day prior to the assay 280,000 HT1080-huFAP, 300,000 HT1080-WT, and 460,000 PS-1 cells were seeded on […] coverslips in a 6-well plate. […] Cells incubated only in medium were taken along to correct for auto-fluorescence. […] Analyses were performed in Fiji (Schindelin et al. [2012]) and were subjected to a custom-made macro to correct for auto-fluorescence signal. […]

PS-1 cells = test: Confocal microscopy of fluorescent tracer uptake, PS-1; format: cell-based
Procedure: as §2, §3

HT1080-huFAP cells = test: Confocal microscopy of fluorescent tracer uptake, HT1080-huFAP; format: cell-based, human
Procedure: as §2, §3

[2] = Stability in mouse serum at 37 °C (radio-HPLC / LC-MS); format: in vitro ADME; conditions: % intact labeled ligand, mouse serum, 37 °C
Procedure: as §1

[3] = Stability in PBS at 37 °C (radio-HPLC / LC-MS); format: physicochemical; conditions: % intact labeled ligand, 37 °C
Procedure: as §1

- Stability (% ± SD) Human serum 1 h ([1]; 1 h): 87.6 ± 0.9%
- Stability (% ± SD) Human serum 4 h ([1]; 4 h): 87.9 ± 2.3%
- Stability (% ± SD) Human serum 24 h ([1]; 24 h): 85.5 ± 2.1%
- Stability (% ± SD) Mouse serum 1 h ([2]; 1 h): 85.0 ± 3.3%
- Stability (% ± SD) Mouse serum 4 h ([2]; 4 h): 83.2 ± 4.1%
- Stability (% ± SD) Mouse serum 24 h ([2]; 24 h): 76.2 ± 7.1%
- Stability (% ± SD) PBS 1 h ([3]; 1 h): 99.5 ± 0.5%
- Stability (% ± SD) PBS 4 h ([3]; 4 h): 99.2 ± 0.7%
- Stability (% ± SD) PBS 24 h ([3]; 24 h): 99.1 ± 0.1%
SMILES: CN1/C(=C/C=C/C=C/C2=[N+](CCCCCC(=O)NCCCOc3cccc4c(C(=O)NCC(=O)N5CC(F)(F)C[C@H]5C#N)ccnc34)c3ccc(S(=O)(=O)[O-])cc3C2(C)C)C(C)(C)c2cc(S(=O)(=O)O)ccc21 [eFAP-7, 1-(6-((3-((4-((2-((S)-2-cyano-4,4-difluoropyrrolidin-1-yl)-2-oxoethyl)carbamoyl)quinolin-8-yl)oxy)propyl)amino)-6-oxohexyl)-3,3-dimethyl-5-sulfo-2-((1E,3E)-5-((E)-1,3,3-trimethyl-5-sulfoindolin-2-ylidene)penta-1,3-dien-1-yl)-3H-indol-1-ium]
- uptake in HT1080-WT cells (HT1080-WT cells): no uptake was observed
- sCy5 signal with an excess of UAMC-1110 (PS-1 cells; PS-1, 1 nM tracer + 1 mM UAMC-1110): almost no visible signal
- uptake in PS-1 cells relative to HT1080-huFAP (PS-1 cells; PS-1, 1 nM, 15 and 45 min): visibly lower than for HT1080-huFAP
- sCy5 signal with an excess of UAMC-1110 (HT1080-huFAP cells; 1 nM tracer + 1 mM UAMC-1110): almost no visible signal
- sCy5 signal (uptake) in cells (HT1080-huFAP cells; 1 nM, 15 and 45 min of incubation): a clear signal was visible
